How the values were obtained:
[1] = test system: Jurkat; assay: metabolic activity relative to DMSO, 18 h (ratio); higher = more viable
In short: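 Metabolic activity values are normalised to the average of vehicle control wells. They come from Jurkat or primary CD4+/CD8+ T cells (naive, or activated 48 h with CD3/CD28 Dynabeads) treated for 18 h at 37 °C, 5% CO2 with compound over 1 nM–10 µM in log10 steps. Then 100 µl of each suspension was mixed in 96-well plates with alamarBlue (10% v/v final), and fluorescence at 544 nm excitation and 584 nm emission was recorded on a FluoStar Omega 3.5 h later.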

[2] = test system: Jurkat; assay: cytotoxicity relative to DMSO, 18 h (ratio); higher = less cell death (drugs called cytotoxic fall below 1)
In short: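 Jurkat or primary CD4+/CD8+ T cells (naive, or activated 48 h with CD3/CD28 Dynabeads) were treated 18 h with compound at 1 nM–10 µM (log10 steps) at 37 °C, 5% CO2. Then 100 µl of suspension went into 96-well plates with IncuCyte Cytotox Dye (250 nM final). Cytotoxicity came from IncuCyte fluorescence imaging (×10, five images per well, hourly over 3 h). Signals were corrected for confluency, then normalised to mean DMSO controls.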

[3] = test system: Jurkat; assay: confluency relative to DMSO, 18 h (ratio); higher = more viable
In short: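 Jurkat cells or primary CD4+/CD8+ T cells, either naive or activated for 48 h with CD3/CD28 Dynabeads, were exposed to compound from 1 nM to 10 µM in log10 steps for 18 h at 37 °C and 5% CO2. Afterwards, 100 µl of each suspension was moved into 96-well plates containing IncuCyte Cytotox Dye and alamarBlue. Phase-contrast images were taken at ×10, five per well, every hour for 3 h. Confluency was derived from these images with the IncuCyte Basic Analyzer, and values are expressed relative to the mean of the control wells.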

Compound `Cc1cc(C(C)Nc2ccccc2C(=O)O)c2nc(N3CCOCC3)cc(=O)n2c1` (stereo not given) [AZD-6482] has a metabolic activity ([1]; 1 nM) of 1.16, a metabolic activity ([1]; 10 nM) of 1.14 and a metabolic activity ([1]; 100 nM) of 1.03. For the same compound, the metabolic activity ([1]; 1000 nM) was 1.03, the metabolic activity ([1]; 10000 nM) was 0.923 and the cytotoxicity ([2]; 1 nM) was 1.19. The cytotoxicity ([2]; 10 nM) was 1.22, the cytotoxicity ([2]; 100 nM) was 1.14 and the cytotoxicity ([2]; 1000 nM) was 1.06. It also gave a cytotoxicity ([2]; 10000 nM) of 0.946, a confluency ([3]; 1 nM) of 1.03 and a confluency ([3]; 10 nM) of 1.03. It also gave a confluency ([3]; 100 nM) of 0.994, a confluency ([3]; 1000 nM) of 0.984 and a confluency ([3]; 10000 nM) of 0.928.
Work on `COc1ccc(-c2ccc3c(N4CCOCC4C)nc(N4CCOCC4C)nc3n2)cc1CO` (stereo not given) [AZD-8055] yielded a metabolic activity ([1]; 1 nM) of 0.971, a metabolic activity ([1]; 10 nM) of 0.823 and a metabolic activity ([1]; 100 nM) of 0.622. It also gave a metabolic activity ([1]; 1000 nM) of 0.572, a metabolic activity ([1]; 10000 nM) of 0.537 and a cytotoxicity ([2]; 1 nM) of 0.884. The cytotoxicity ([2]; 10 nM) was 0.815, the cytotoxicity ([2]; 100 nM) was 0.84 and the cytotoxicity ([2]; 1000 nM) was 0.834. It also gave a cytotoxicity ([2]; 10000 nM) of 0.823, a confluency ([3]; 1 nM) of 0.982 and a confluency ([3]; 10 nM) of 1. For the same compound, the confluency ([3]; 100 nM) was 0.96, the confluency ([3]; 1000 nM) was 0.99 and the confluency ([3]; 10000 nM) was 0.99.
`CC(Nc1cc(F)cc(F)c1)c1cc(C(=O)N(C)C)cc2c(=O)cc(N3CCOCC3)oc12` (stereo not given) [AZD-8186] showed a metabolic activity ([1]; 1 nM) of 0.891, a metabolic activity ([1]; 10 nM) of 1.03 and a metabolic activity ([1]; 100 nM) of 1.01. For the same compound, the metabolic activity ([1]; 1000 nM) was 1.03, the metabolic activity ([1]; 10000 nM) was 1.08 and the cytotoxicity ([2]; 1 nM) was 0.895. It also gave a cytotoxicity ([2]; 10 nM) of 0.858, a cytotoxicity ([2]; 100 nM) of 0.928 and a cytotoxicity ([2]; 1000 nM) of 0.803. For the same compound, the cytotoxicity ([2]; 10000 nM) was 0.831, the confluency ([3]; 1 nM) was 0.882 and the confluency ([3]; 10 nM) was 0.901. For the same compound, the confluency ([3]; 100 nM) was 0.946, the confluency ([3]; 1000 nM) was 0.826 and the confluency ([3]; 10000 nM) was 0.846.
`CCN1CCN(Cc2ccc(Nc3ncc(F)c(-c4cc(F)c5nc(C)n(C(C)C)c5c4)n3)nc2)CC1` [Abemaciclib] showed a metabolic activity ([1]; 1 nM) of 1.22, a metabolic activity ([1]; 10 nM) of 1.24 and a metabolic activity ([1]; 100 nM) of 1.2. The metabolic activity ([1]; 1000 nM) was 1.15, the metabolic activity ([1]; 10000 nM) was 0.888 and the cytotoxicity ([2]; 1 nM) was 1.04. It also gave a cytotoxicity ([2]; 10 nM) of 1.13, a cytotoxicity ([2]; 100 nM) of 1.06 and a cytotoxicity ([2]; 1000 nM) of 1.09. It also gave a cytotoxicity ([2]; 10000 nM) of 0.718, a confluency ([3]; 1 nM) of 0.952 and a confluency ([3]; 10 nM) of 1.02. It also gave a confluency ([3]; 100 nM) of 0.98, a confluency ([3]; 1000 nM) of 0.991 and a confluency ([3]; 10000 nM) of 0.818.
For `Cc1c2oc3c(C)ccc(C(=O)NC4C(=O)NC(C(C)C)C(=O)N5CCCC5C(=O)N(C)CC(=O)N(C)C(C(C)C)C(=O)OC4C)c3nc-2c(C(=O)NC2C(=O)NC(C(C)C)C(=O)N3CCCC3C(=O)N(C)CC(=O)N(C)C(C(C)C)C(=O)OC2C)c(N)c1=O` (stereo not given) [Actinomycin D], the metabolic activity ([1]; 1 nM) was 0.959, the metabolic activity ([1]; 10 nM) was 0.746 and the metabolic activity ([1]; 100 nM) was 0.2. For the same compound, the metabolic activity ([1]; 1000 nM) was 0.152, the metabolic activity ([1]; 10000 nM) was 0.192 and the cytotoxicity ([2]; 1 nM) was 1.08. The cytotoxicity ([2]; 10 nM) was 1.02, the cytotoxicity ([2]; 100 nM) was 0.661 and the cytotoxicity ([2]; 1000 nM) was 0.517. The cytotoxicity ([2]; 10000 nM) was 0.477, the confluency ([3]; 1 nM) was 1.11 and the confluency ([3]; 10 nM) was 1.09. For the same compound, the confluency ([3]; 100 nM) was 0.972, the confluency ([3]; 1000 nM) was 0.907 and the confluency ([3]; 10000 nM) was 0.923.
Work on `Cc1nc(NC(=O)N2CCCC2C(N)=O)sc1-c1ccnc(C(C)(C)C(F)(F)F)c1` (stereo not given) [Alpelisib] yielded a metabolic activity ([1]; 1 nM) of 1.04, a metabolic activity ([1]; 10 nM) of 0.899 and a metabolic activity ([1]; 100 nM) of 0.903. It also gave a metabolic activity ([1]; 1000 nM) of 0.94, a metabolic activity ([1]; 10000 nM) of 0.873 and a cytotoxicity ([2]; 1 nM) of 0.929. It also gave a cytotoxicity ([2]; 10 nM) of 0.926, a cytotoxicity ([2]; 100 nM) of 0.959 and a cytotoxicity ([2]; 1000 nM) of 0.997. For the same compound, the cytotoxicity ([2]; 10000 nM) was 0.881, the confluency ([3]; 1 nM) was 0.994 and the confluency ([3]; 10 nM) was 0.977. It also gave a confluency ([3]; 100 nM) of 0.984, a confluency ([3]; 1000 nM) of 1.02 and a confluency ([3]; 10000 nM) of 0.933.
`CN1CCC(c2c(O)cc(O)c3c(=O)cc(-c4ccccc4Cl)oc23)C(O)C1` (stereo not given) [Alvocidib] showed a metabolic activity ([1]; 1 nM) of 1.04, a metabolic activity ([1]; 10 nM) of 0.946 and a metabolic activity ([1]; 100 nM) of 0.712. For the same compound, the metabolic activity ([1]; 1000 nM) was 0.086, the metabolic activity ([1]; 10000 nM) was 0.108 and the cytotoxicity ([2]; 1 nM) was 1.03. For the same compound, the cytotoxicity ([2]; 10 nM) was 0.92, the cytotoxicity ([2]; 100 nM) was 0.89 and the cytotoxicity ([2]; 1000 nM) was 0.505. It also gave a cytotoxicity ([2]; 10000 nM) of 0.526, a confluency ([3]; 1 nM) of 0.999 and a confluency ([3]; 10 nM) of 0.999. The confluency ([3]; 100 nM) was 0.974, the confluency ([3]; 1000 nM) was 0.927 and the confluency ([3]; 10000 nM) was 0.939.
Work on `COc1cc(OC)c2c(=O)[nH]c(-c3cc(C)c(OCCO)c(C)c3)nc2c1` [Apabetalone] yielded a metabolic activity ([1]; 1 nM) of 0.842, a metabolic activity ([1]; 10 nM) of 0.904 and a metabolic activity ([1]; 100 nM) of 0.962. For the same compound, the metabolic activity ([1]; 1000 nM) was 0.952, the metabolic activity ([1]; 10000 nM) was 0.932 and the cytotoxicity ([2]; 1 nM) was 1.06. The cytotoxicity ([2]; 10 nM) was 1.08, the cytotoxicity ([2]; 100 nM) was 1.01 and the cytotoxicity ([2]; 1000 nM) was 1.04. The cytotoxicity ([2]; 10000 nM) was 1.01, the confluency ([3]; 1 nM) was 1.08 and the confluency ([3]; 10 nM) was 1.11. For the same compound, the confluency ([3]; 100 nM) was 1.04, the confluency ([3]; 1000 nM) was 1.08 and the confluency ([3]; 10000 nM) was 1.1.
For `Cc1c(CN2CCN(C(=O)C(C)O)CC2)sc2c(N3CCOCC3)nc(-c3cnc(N)nc3)nc12` (stereo not given) [Apitolisib], the metabolic activity ([1]; 1 nM) was 0.857, the metabolic activity ([1]; 10 nM) was 0.984 and the metabolic activity ([1]; 100 nM) was 0.899. The metabolic activity ([1]; 1000 nM) was 0.955, the metabolic activity ([1]; 10000 nM) was 0.781 and the cytotoxicity ([2]; 1 nM) was 0.79. It also gave a cytotoxicity ([2]; 10 nM) of 0.992, a cytotoxicity ([2]; 100 nM) of 0.752 and a cytotoxicity ([2]; 1000 nM) of 0.937. It also gave a cytotoxicity ([2]; 10000 nM) of 0.628, a confluency ([3]; 1 nM) of 0.851 and a confluency ([3]; 10 nM) of 1.06. The confluency ([3]; 100 nM) was 0.825, the confluency ([3]; 1000 nM) was 0.998 and the confluency ([3]; 10000 nM) was 0.727.
`COc1ccc(-c2ccc3ncc4c(c3c2)n(-c2ccc(N3CCNCC3)c(C(F)(F)F)c2)c(=O)n4C)cn1` [BGT-226] was tested, and the metabolic activity ([1]; 1 nM) was 0.968, the metabolic activity ([1]; 10 nM) was 0.842 and the metabolic activity ([1]; 100 nM) was 0.693. It also gave a metabolic activity ([1]; 1000 nM) of 0.604, a metabolic activity ([1]; 10000 nM) of 0.048 and a cytotoxicity ([2]; 1 nM) of 1.02. For the same compound, the cytotoxicity ([2]; 10 nM) was 0.915, the cytotoxicity ([2]; 100 nM) was 0.808 and the cytotoxicity ([2]; 1000 nM) was 0.672. The cytotoxicity ([2]; 10000 nM) was 0.448, the confluency ([3]; 1 nM) was 1.03 and the confluency ([3]; 10 nM) was 0.954. The confluency ([3]; 100 nM) was 0.935, the confluency ([3]; 1000 nM) was 0.793 and the confluency ([3]; 10000 nM) was 0.831.
In the case of `CCS(=O)(=O)N1CC(CC#N)(n2cc(-c3ncnc4[nH]ccc34)cn2)C1` [Baricitinib], the metabolic activity ([1]; 1 nM) was 0.956, the metabolic activity ([1]; 10 nM) was 1.04 and the metabolic activity ([1]; 100 nM) was 1.22. For the same compound, the metabolic activity ([1]; 1000 nM) was 1.11, the metabolic activity ([1]; 10000 nM) was 0.878 and the cytotoxicity ([2]; 1 nM) was 0.929. The cytotoxicity ([2]; 10 nM) was 0.913, the cytotoxicity ([2]; 100 nM) was 1.02 and the cytotoxicity ([2]; 1000 nM) was 0.869. The cytotoxicity ([2]; 10000 nM) was 0.802, the confluency ([3]; 1 nM) was 0.989 and the confluency ([3]; 10 nM) was 0.95. It also gave a confluency ([3]; 100 nM) of 0.965, a confluency ([3]; 1000 nM) of 0.879 and a confluency ([3]; 10000 nM) of 0.812.

Reference: the supplement of paper PMC11919725
